Experimental data taken from patent US20230240290A1, “USE OF (Z)-3-HEXENYL ESTERS AND METHOD FOR PROTECTING PLANTS AGAINST PESTS” (UNIVERSITAT POLITÈCNICA DE VALÈNCIA, priority 2020, published 2023).

What was measured:
[1] = tested on: SI-PI-I (marker for plant proteinase inhibitors); test: Transcriptional response of SI-PI-I in tomato plants exposed to volatiles (laboratory); format: in vivo, Solanum lycopersicum cv. Moneymaker; conditions: intact tomato plants exposed 24 h; filter paper, 1:10,000 ester:methanol; n=8
Protocol: Moneymaker tomato plants were used. Two weeks after seed germination, the seedlings were individually transplanted into pots (8×8×8 cm). The plants were kept at 25±2° C., with a constant relative humidity of 65%±5% and a 14:10 h (light:dark) photoperiod. Tomato plants that had not received any pesticide treatment at four weeks of age (about 20 cm tall) were used. All volatiles used were obtained from Sigma-Aldrich (St. Louis, Mo., USA). Each volatile was exposed by using a 2×2 cm piece of filter paper on which 10 μl of a solution containing the corresponding volatile at a concentration of 1:10,000 [(Z)-3-hexenyl ester:methanol] was impregnated as an emitting source of the corresponding volatile (Pérez-Hedo, M. et al. Biocontrol, 63: 203-213 (2018)).
To activate a plant, two pieces of filter paper impregnated with the volatile were placed at the bottom of a 30×30×30 cm plastic cage (BugDorm-1 Insect Tents; MegaView Science Co., Ltd, Taichung, Taiwan) into which the plant was introduced. A control treatment was carried out in which the two pieces of filter paper were impregnated with 10 μl of methanol. Eight repetitions per treatment were performed. The plants of the treatments were kept exposed to the volatile without disturbing for 24 hours in separate and isolated climatic chambers to avoid any interference from the volatiles and were kept at 25±2° C., 65±10% RH, and a 14:10 h (L:D) photoperiod. […]
The methodology followed for extracting and quantifying gene expression was described by Pérez-Hedo et al. Journal of Pest Science 3: 543-554 (2015). The primers used were forward primer: 5′-[…]-3′ (SEQ ID NO: 1) and reverse primer: 5′-[…]-3′ (SEQ ID NO: 2) for the quantification of PR1, forward primer: 5′-[…]-3′ (SEQ ID NO: 3) and reverse primer: 5′-[…]-3′ (SEQ ID NO: 4) for SI-PI-I, and forward primer: 5′-[…]-3′ (SEQ ID NO: 5) and reverse primer: 5′-[…]-3′ (SEQ ID NO: 6) for the SI-PI-II gene. […]

Tetranychus urticae = test: Development of Tetranychus urticae on exposed tomato plants; format: in vivo; conditions: T. urticae, 21 days after release
Protocol: It was also studied whether the defensive activation induced by exposure to (Z)-3-hexenyl propanoate could influence the development of two highly important phytophages in tomato cultivation, the red spider, T. urticae, and the lepidoptera T. absoluta. The individuals used in these experiments came from the captive breeding of these species that are kept in the IVIA described above. The exposure time of the plant to the volatile was tested on both phytophages in two different ways, one where the plant was only exposed to the volatile for 24 hours and then the herbivore to be assayed was immediately released, and the other where the volatile was permanently exposed throughout the experiment.
For this purpose, two climatic chambers were used under the same environmental conditions [25±2° C., 65±5% HR and 14:10 h (L:D) photoperiod], wherein, to avoid interference between the volatiles, one was assigned to the (Z)-3-hexenyl propanoate treatments and one to the control treatment. […]
Eight tomato plants (Lycopersicon esculentum cv. Moneymaker) were introduced in each cage. […] Naked eye sampling was carried out seven, 14, and 21 days after the release of T. urticae, where the total number of T. urticae females in each plant was counted.

SMILES: CC/C=C\CCOC(=O)CC [(Z)-3-hexenyl propanoate]
- Transcriptional response of SI-PI-I compared to the control [1]: significantly overexpressed
- Reduction in the number of mites per plant with respect to the control (Tetranychus urticae; plant exposed for 24 h before release): 50.3±6.3%
- Reduction in the number of mites per plant with respect to the control (Tetranychus urticae; plant exposed throughout the entire experiment): 83.9±5.0%
